According to patent publication US20070049564A1 (Wyeth, priority 2005, published 2007):
Converted amounts (≈) assume the structure as drawn. Read-outs that look alike come from different tables or passages of the source.

What was measured:
[1] = tested on: Staph.; assay: Range of MIC for Staph. strains, including MRSA; conditions: Staphylococcus aureus, MRSA
[2] = tested on: E. coli; assay: Range of MIC for E. coli strains; conditions: Escherichia coli
[3] = read-out: Range of MIC, Staph (Mouse Serum)
[4] = read-out: Range of MIC, Staph (Water)
[5] = 20 h, read-out: Range of MIC, E. coli (Mouse Serum)
[6] = read-out: Range of MIC, E. coli (Water)

Row | MIC [1, 3] | MIC [1, 4] | MIC [2, 5] | MIC [2, 6] | Structure (SMILES)
1 | 0.5 to 2 mg/L (≈ 0.633 to 2.53 µM) | 2 to 4 mg/L (≈ 2.53 to 5.06 µM) | 1 to 2 mg/L (≈ 1.27 to 2.53 µM) | > 64 mg/L | CN(C)c1cc(NC(=O)CN(C(=O)OCOC(=O)/C=C/c2ccccc2)C(C)(C)C)c(O)c2c1C[C@H]1C[C@H]3[C@H](N(C)C)C(O)=C(C(N)=O)C(=O)[C@@]3(O)C(O)=C1C2=O [Example 99, ({[(2-{[(5aR,6aS,7S,10aS)-9-(aminocarbonyl)-4,7-bis(dimethylamino)-1,8,10a,11-tetrahydroxy-10,12-dioxo-5,5a,6,6a,7,10,10a,12-octahydrotetracen-2-yl]amino}-2-oxoethyl)(tert-butyl)amino]carbonyl}oxy)methyl (2E)-3-phenylprop-2-enoate]
2 | 0.5 to 1 mg/L (≈ 0.611 to 1.22 µM) | 2 to 4 mg/L (≈ 2.45 to 4.89 µM) | 2 mg/L (≈ 2.45 µM) |  | Cc1c(C(=O)OCOC(=O)N(CC(=O)Nc2cc(N(C)C)c3c(c2O)C(=O)C2=C(O)[C@]4(O)C(=O)C(C(N)=O)=C(O)[C@@H](N(C)C)[C@@H]4C[C@@H]2C3)C(C)(C)C)oc2ccccc12 [Example 100, ({[(2-{[(5aR,6aS,7S,10aS)-9-(aminocarbonyl)-4,7-bis(dimethylamino)-1,8,10a,11-tetrahydroxy-10,12-dioxo-5,5a,6,6a,7,10,10a,12-octahydrotetracen-2-yl]amino}-2-oxoethyl)(tert-butyl)amino]carbonyl}oxy)methyl 3-methyl-1-benzofuran-2-carboxylate]
3 | 0.5 to 2 mg/L (≈ 0.547 to 2.19 µM) | 4 to 16 mg/L (≈ 4.38 to 17.5 µM) | 1 mg/L (≈ 1.09 µM) | 16 to 32 mg/L (≈ 17.5 to 35 µM) | CN(C)c1cc(NC(=O)CN(C(=O)OCOC(=O)Cc2cc(C(F)(F)F)cc(C(F)(F)F)c2)C(C)(C)C)c(O)c2c1C[C@H]1C[C@H]3[C@H](N(C)C)C(O)=C(C(N)=O)C(=O)[C@@]3(O)C(O)=C1C2=O [Example 101, ({[(2-{[(5aR,6aS,7S,10aS)-9-(aminocarbonyl)-4,7-bis(dimethylamino)-1,8,10a,11-tetrahydroxy-10,12-dioxo-5,5a,6,6a,7,10,10a,12-octahydrotetracen-2-yl]amino}-2-oxoethyl)(tert-butyl)amino]carbonyl}oxy)methyl [3,5-bis(trifluoromethyl)phenyl]acetate]
4 | 8 to 16 mg/L (≈ 9.22 to 18.4 µM) |  | 8 to 16 mg/L (≈ 9.22 to 18.4 µM) | > 64 mg/L | CN(C)c1cc(NC(=O)CN(C(=O)OCOC(=O)c2ccccc2CCc2ccccc2)C(C)(C)C)c(O)c2c1C[C@H]1C[C@H]3[C@H](N(C)C)C(O)=C(C(N)=O)C(=O)[C@@]3(O)C(O)=C1C2=O [Example 103, ({[(2-{[(5aR,6aS,7S,10aS)-9-(aminocarbonyl)-4,7-bis(dimethylamino)-1,8,10a,11-tetrahydroxy-10,12-dioxo-5,5a,6,6a,7,10,10a,12-octahydrotetracen-2-yl]amino}-2-oxoethyl)(tert-butyl)amino]carbonyl}oxy)methyl 2-(2-phenylethyl)benzoate]
5 | 16 to 64 mg/L (≈ 16.9 to 67.5 µM) |  | 8 to 16 mg/L (≈ 8.44 to 16.9 µM) | > 64 mg/L | CCCCCCCCCCCCOc1ccc(C(=O)OCOC(=O)N(CC(=O)Nc2cc(N(C)C)c3c(c2O)C(=O)C2=C(O)[C@]4(O)C(=O)C(C(N)=O)=C(O)[C@@H](N(C)C)[C@@H]4C[C@@H]2C3)C(C)(C)C)cc1 [Example 104]
6 | 1 to 2 mg/L (≈ 1.22 to 2.44 µM) |  | 2 mg/L (≈ 2.44 µM) | > 64 mg/L | CC(=O)Nc1ccc(C(=O)OCOC(=O)N(CC(=O)Nc2cc(N(C)C)c3c(c2O)C(=O)C2=C(O)[C@]4(O)C(=O)C(C(N)=O)=C(O)[C@@H](N(C)C)[C@@H]4C[C@@H]2C3)C(C)(C)C)cc1 [Example 105]
7 | > 64 mg/L | > 64 mg/L | > 64 mg/L | > 64 mg/L | CN(C)c1cc(NC(=O)CN(C(=O)OCOC(=O)c2c3ccccc3cc3ccccc23)C(C)(C)C)c(O)c2c1C[C@H]1C[C@H]3[C@H](N(C)C)C(O)=C(C(N)=O)C(=O)[C@@]3(O)C(O)=C1C2=O [Example 106, ({[(2-{[(5aR,6aS,7S,10aS)-9-(aminocarbonyl)-4,7-bis(dimethylamino)-1,8,10a,11-tetrahydroxy-10,12-dioxo-5,5a,6,6a,7,10,10a,12-octahydrotetracen-2-yl]amino}-2-oxoethyl)(tert-butyl)amino]carbonyl}oxy)methyl anthracene-9-carboxylate]

Continued, molecule first:

Row | Structure (SMILES) | MIC [1, 3] | MIC [1, 4] | MIC [2, 5] | MIC [2, 6]
8 | CCC(CC)C(=O)OCOC(=O)Nc1cc(N(C)C)c2c(c1O)C(=O)C1=C(O)[C@]3(O)C(=O)C(C(N)=O)=C(O)[C@@H](N(C)C)[C@@H]3C[C@@H]1C2 [Example 85, [({[(5aR,6aS,7S,10aS)-9-(aminocarbonyl)-4,7-bis(dimethylamino)-1,8,10a,11-tetrahydroxy-10,12-dioxo-5,5a,6,6a,7,10,10a,12-octahydrotetracen-2-yl]amino}carbonyl)oxy]methyl 2-ethylbutanoate] | 1 to 2 mg/L (≈ 1.55 to 3.1 µM) | 4 to 16 mg/L (≈ 6.2 to 24.8 µM) | 1 to 2 mg/L (≈ 1.55 to 3.1 µM) | > 64 mg/L
9 | CN(C)c1cc(NC(=O)OCOC(=O)CC2CCCC2)c(O)c2c1C[C@H]1C[C@H]3[C@H](N(C)C)C(O)=C(C(N)=O)C(=O)[C@@]3(O)C(O)=C1C2=O [Example 86, [({[(5aR,6aS,7S,10aS)-9-(aminocarbonyl)-4,7-bis(dimethylamino)-1,8,10a,11-tetrahydroxy-10,12-dioxo-5,5a,6,6a,7,10,10a,12-octahydrotetracen-2-yl]amino}carbonyl)oxy]methyl cyclopentylacetate] | 2 to 8 mg/L (≈ 3.05 to 12.2 µM) | 8 mg/L (≈ 12.2 µM) | 8 to 16 mg/L (≈ 12.2 to 24.4 µM) | > 64 mg/L
10 | CN(C)c1cc(NC(=O)CN(C(=O)OCOC(=O)c2cccnc2)C(C)(C)C)c(O)c2c1C[C@H]1C[C@H]3[C@H](N(C)C)C(O)=C(C(N)=O)C(=O)[C@@]3(O)C(O)=C1C2=O [Example 88, ({[(2-{[(5aR,6aS,7S,10aS)-9-(aminocarbonyl)-4,7-bis(dimethylamino)-1,8,10a,11-tetrahydroxy-10,12-dioxo-5,5a,6,6a,7,10,10a,12-octahydrotetracen-2-yl]amino}-2-oxoethyl)(tert-butyl)amino]carbonyl}oxy)methyl nicotinate] | 1 to 4 mg/L (≈ 1.31 to 5.23 µM) | 4 to 16 mg/L (≈ 5.23 to 20.9 µM) | 0.5 to 2 mg/L (≈ 0.654 to 2.62 µM) | 8 to 16 mg/L (≈ 10.5 to 20.9 µM)
11 | CN(C)c1cc(NC(=O)CN(C(=O)OCOC(=O)c2ccncc2)C(C)(C)C)c(O)c2c1C[C@H]1C[C@H]3[C@H](N(C)C)C(O)=C(C(N)=O)C(=O)[C@@]3(O)C(O)=C1C2=O [Example 89, ({[(2-{[(5aR,6aS,7S,10aS)-9-(aminocarbonyl)-4,7-bis(dimethylamino)-1,8,10a,11-tetrahydroxy-10,12-dioxo-5,5a,6,6a,7,10,10a,12-octahydrotetracen-2-yl]amino}-2-oxoethyl)(tert-butyl)amino]carbonyl}oxy)methyl isonicotinate] | 0.5 to 1 mg/L (≈ 0.654 to 1.31 µM) | 1 to 4 mg/L (≈ 1.31 to 5.23 µM) | 0.25 to 1 mg/L (≈ 0.327 to 1.31 µM) | 4 to 8 mg/L (≈ 5.23 to 10.5 µM)
12 | CN(C)c1cc(NC(=O)CN(C(=O)OCOC(=O)c2ccccc2C(F)(F)F)C(C)(C)C)c(O)c2c1C[C@H]1C[C@H]3[C@H](N(C)C)C(O)=C(C(N)=O)C(=O)[C@@]3(O)C(O)=C1C2=O [Example 92] | 4 mg/L (≈ 4.81 µM) | 8 to 32 mg/L (≈ 9.62 to 38.5 µM) | 4 to 8 mg/L (≈ 4.81 to 9.62 µM) | > 64 mg/L
13 | CN(C)c1cc(NC(=O)CN(C(=O)OCOC(=O)c2ccccc2-c2ccccc2)C(C)(C)C)c(O)c2c1C[C@H]1C[C@H]3[C@H](N(C)C)C(O)=C(C(N)=O)C(=O)[C@@]3(O)C(O)=C1C2=O [Example 94, ({[(2-{[(5aR,6aS,7S,10aS)-9-(aminocarbonyl)-4,7-bis(dimethylamino)-1,8,10a,11-tetrahydroxy-10,12-dioxo-5,5a,6,6a,7,10,10a,12-octahydrotetracen-2-yl]amino}-2-oxoethyl)(tert-butyl)amino]carbonyl}oxy)methyl 1,1′-biphenyl-2-carboxylate] | 16 to 32 mg/L (≈ 19 to 38.1 µM) | > 64 mg/L | 32 to 64 mg/L (≈ 38.1 to 76.2 µM) | > 64 mg/L
14 | Cc1cc(C)c(C(=O)OCOC(=O)N(CC(=O)Nc2cc(N(C)C)c3c(c2O)C(=O)C2=C(O)[C@]4(O)C(=O)C(C(N)=O)=C(O)[C@@H](N(C)C)[C@@H]4C[C@@H]2C3)C(C)(C)C)c(C)c1 [Example 95, ({[(2-{[(5aR,6aS,7S,10aS)-9-(aminocarbonyl)-4,7-bis(dimethylamino)-1,8,10a,11-tetrahydroxy-10,12-dioxo-5,5a,6,6a,7,10,10a,12-octahydrotetracen-2-yl]amino}-2-oxoethyl)(tert-butyl)amino]carbonyl}oxy)methyl 2,4,6-trimethylbenzoate] |  | > 64 mg/L | > 64 mg/L | > 64 mg/L
15 | COc1cc(C(=O)OCOC(=O)N(CC(=O)Nc2cc(N(C)C)c3c(c2O)C(=O)C2=C(O)[C@]4(O)C(=O)C(C(N)=O)=C(O)[C@@H](N(C)C)[C@@H]4C[C@@H]2C3)C(C)(C)C)cc(OC)c1OC [Example 97, ({[(2-{[(5aR,6aS,7S,10aS)-9-(aminocarbonyl)-4,7-bis(dimethylamino)-1,8,10a,11-tetrahydroxy-10,12-dioxo-5,5a,6,6a,7,10,10a,12-octahydrotetracen-2-yl]amino}-2-oxoethyl)(tert-butyl)amino]carbonyl}oxy)methyl 3,4,5-trimethoxybenzoate] | 1 to 4 mg/L (≈ 1.17 to 4.68 µM) | 4 to 8 mg/L (≈ 4.68 to 9.37 µM) | 4 to 8 mg/L (≈ 4.68 to 9.37 µM) | > 64 mg/L
16 | COc1cc(OC)cc(C(=O)OCOC(=O)N(CC(=O)Nc2cc(N(C)C)c3c(c2O)C(=O)C2=C(O)[C@]4(O)C(=O)C(C(N)=O)=C(O)[C@@H](N(C)C)[C@@H]4C[C@@H]2C3)C(C)(C)C)c1 [Example 98, ({[(2-{[(5aR,6aS,7S,10aS)-9-(aminocarbonyl)-4,7-bis(dimethylamino)-1,8,10a,11-tetrahydroxy-10,12-dioxo-5,5a,6,6a,7,10,10a,12-octahydrotetracen-2-yl]amino}-2-oxoethyl)(tert-butyl)amino]carbonyl}oxy)methyl 3,5-dimethoxybenzoate] | 0.5 to 2 mg/L (≈ 0.607 to 2.43 µM) | 2 to 4 mg/L (≈ 2.43 to 4.86 µM) | 1 to 4 mg/L (≈ 1.21 to 4.86 µM) | > 64 mg/L
